Test results published in ChEMBL document CHEMBL5393444, “Sulfonamide derivatives as ctps1 inhibitors” (2022).

What was measured:
CTP synthase 1 = molecular target: T1, CTP synthase 1 (Homo sapiens, UniProt P17812); assay: Inhibition of C-terminal FLAG-His8-tagged full length human CTPS1 preincubated for 10 mins followed by substrate addition by ADP-Glo assay
T1 sequence (P17812 whole entry): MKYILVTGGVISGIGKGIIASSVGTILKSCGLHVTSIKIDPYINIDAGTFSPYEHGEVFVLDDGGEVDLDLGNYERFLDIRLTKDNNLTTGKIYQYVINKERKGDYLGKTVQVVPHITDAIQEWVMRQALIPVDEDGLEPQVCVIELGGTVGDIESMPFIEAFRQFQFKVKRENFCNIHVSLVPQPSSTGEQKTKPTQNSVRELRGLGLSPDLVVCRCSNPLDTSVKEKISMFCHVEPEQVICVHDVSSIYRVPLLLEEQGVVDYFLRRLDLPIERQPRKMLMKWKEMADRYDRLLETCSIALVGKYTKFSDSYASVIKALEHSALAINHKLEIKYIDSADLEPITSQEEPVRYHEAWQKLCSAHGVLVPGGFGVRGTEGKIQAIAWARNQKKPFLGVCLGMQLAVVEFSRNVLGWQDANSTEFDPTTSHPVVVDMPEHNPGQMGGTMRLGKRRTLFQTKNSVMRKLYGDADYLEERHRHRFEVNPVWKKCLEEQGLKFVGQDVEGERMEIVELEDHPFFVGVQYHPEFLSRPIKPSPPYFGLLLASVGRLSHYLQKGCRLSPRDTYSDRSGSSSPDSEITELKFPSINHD

Homo sapiens = species: Homo sapiens; assay: Selectivity ratio of IC50 for human CTPS2 to IC50 for human CTPS1 by RapidFire/MS analysis

| IC50 (CTP synthase 1) [nM] | Ratio IC50 (Homo sapiens) | SMILES |
| --- | --- | --- |
| ≤ 100 | > 60 | CC(C)Oc1cncc(-c2ccc(NC(=O)C(C)(C)c3ccnc(NS(=O)(=O)C4CC4)n3)nc2)n1 |
| ≤ 100 | 2 | CCOc1cncc(-c2cnc(NC(=O)C(CC)c3ccnc(NS(=O)(=O)C4CC4)n3)c(C)c2)n1 (stereo unspecified) |
| ≤ 100 | > 60 | CCOc1cncc(-c2ccc(NC(=O)C(C)(CCOC)c3cncc(NS(=O)(=O)C4CC4)n3)nc2)n1 (stereo unspecified) |
| ≤ 100 | > 60 | CCOc1cncc(-c2ccc(NC(=O)C3(c4ccnc(NS(=O)(=O)CC#N)n4)CCOCC3)nc2)n1 |
| ≤ 100 | > 60 | CCOc1cncc(-c2ccc(NC(=O)C3(c4ccnc(NS(=O)(=O)C5CC5)n4)CCC(=O)CC3)nc2)n1 |
| ≤ 100 | > 60 | CCOc1cncc(-c2ccc(NC(=O)C(CCOC)c3ccnc(NS(=O)(=O)C4CC4)n3)c(F)c2)n1 (stereo unspecified) |
| ≤ 100 | > 60 | CCC(C(=O)Nc1ccc(-c2cncc(OC)n2)cn1)c1ccnc(NS(=O)(=O)C2CC2)n1 (stereo unspecified) |
| ≤ 100 | > 60 | CCOc1cncc(-c2ccc(NC(=O)C(C)(C)c3cncc(NS(=O)(=O)C4CC4)n3)cc2)n1 |
| ≤ 100 | > 60 | CCOc1cncc(-c2ccc(NC(=O)C(CC)c3ccnc(NS(=O)(=O)C4CC4)n3)nc2)n1 (stereo unspecified) |
| ≤ 100 | > 60 | CCOc1cncc(-c2ccc(NC(=O)C3(c4ccnc(NS(=O)(=O)C5CC5)n4)CCCC3)cc2)n1 |
| ≤ 100 | 2 | CCOc1cncc(-c2ccc(NC(=O)C(C)(C)c3ccnc(NS(=O)(=O)C4CC4)n3)c(C#N)c2)n1 |
| ≤ 100 | 2 | CCOc1cncc(-c2ccc(NC(=O)C(C)(C)c3ccnc(NS(=O)(=O)C4CC4)n3)c(F)c2)n1 |
| ≤ 100 | > 60 | CCOc1cncc(-c2ccc(NC(=O)C(F)(CC)c3ccnc(NS(C)(=O)=O)n3)nc2)n1 (stereo unspecified) |
| ≤ 100 | > 60 | CCOc1cncc(-c2ccc(NC(=O)C3(c4ccnc(NS(=O)(=O)C5CC5)n4)CC3)cc2)n1 |
| ≤ 100 | 2 | CCOc1cncc(-c2ccc(NC(=O)C(OC)c3ccnc(NS(=O)(=O)C4CC4)n3)cc2)n1 (stereo unspecified) |
| ≤ 100 | > 60 | CCC(C(=O)Nc1ccc(-c2cncc(OCC(F)(F)F)n2)cc1F)c1ccnc(NS(=O)(=O)C2CC2)n1 (stereo unspecified) |
| ≤ 100 | > 60 | CCOc1cncc(-c2ccc(NC(=O)C3(c4ccnc(NS(=O)(=O)C5CC5)n4)CCN(S(C)(=O)=O)CC3)nc2)n1 |
| ≤ 100 | > 60 | CCOc1cncc(-c2ccc(NC(=O)C(C)(CC)c3ccnc(NS(=O)(=O)C4CC4)n3)nc2)n1 (stereo unspecified) |
| ≤ 100 | > 60 | CCOc1cncc(-c2ccc(C(=O)NC(CC)c3ccnc(NS(=O)(=O)C4CC4)n3)c(F)c2)n1 (stereo unspecified) |
| ≤ 100 | 30 | CCC(C(=O)Nc1ccc(-c2cncc(C(F)(F)F)n2)cn1)c1ccnc(NS(=O)(=O)C2CC2)n1 (stereo unspecified) |
| ≤ 100 | > 60 | CCOc1cncc(-c2ccc(NC(=O)C3(c4ccnc(NS(=O)(=O)C5CC5)n4)CCOCC3)nc2)n1 |
| ≤ 100 | 30 | CCOc1cncc(-c2ccc(NC(=O)C(CC)c3cccc(NS(=O)(=O)C4CC4)n3)nc2)n1 (stereo unspecified) |
| ≤ 100 | > 60 | CCC(C(=O)Nc1ccc(-c2cncc(OCC(F)(F)F)n2)cc1)c1ccnc(NS(=O)(=O)C2CC2)n1 (stereo unspecified) |
| ≤ 100 | 30 | CCOc1cncc(-c2ccc(NC(=O)C(CC)c3ccnc(NS(=O)(=O)C4CC4)n3)cc2)n1 (stereo unspecified) |
| ≤ 100 | 30 | CCOc1cncc(-c2cnc(NC(=O)C(CC)c3ccnc(NS(=O)(=O)C4CC4)n3)c(F)c2)n1 (stereo unspecified) |
| ≤ 100 | > 60 | CCOc1cncc(-c2ccc(NC(=O)C(CCOC)c3ccnc(NS(=O)(=O)C4CC4)n3)nc2)n1 (stereo unspecified) |
| ≤ 100 | > 60 | CCOc1cncc(-c2ccc(NC(=O)C(C)(C)c3cncc(NS(=O)(=O)C4CC4)n3)nc2)n1 |
| ≤ 100 | > 60 | CCOc1cncc(-c2ccc(NC(=O)C(C)(C)c3ccnc(NS(=O)(=O)C4CC4)n3)nc2)n1 |

| IC50 (CTP synthase 1) [nM] | Ratio IC50 (Homo sapiens) | SMILES |
| --- | --- | --- |
| ≤ 100 | > 60 | CCOc1cncc(-c2ccc(NC(=O)C(CC)c3cncc(NS(=O)(=O)C4CC4)n3)nc2)n1 (stereo unspecified) |
| ≤ 100 | 2 | CCC(C(=O)Nc1ccc(-c2cncc(OC)n2)cc1F)c1ccnc(NS(=O)(=O)C2CC2)n1 (stereo unspecified) |
| ≤ 100 | > 60 | CCOc1cncc(-c2ccc(NC(=O)C3(c4ccnc(NS(=O)(=O)C5CC5)n4)CCC(F)(F)CC3)nc2)n1 |
| ≤ 100 | 30 | CC(C)Oc1cncc(-c2ccc(NC(=O)Cc3ccnc(NS(=O)(=O)C4CC4)n3)cc2)n1 |
| ≤ 100 | > 60 | CCOc1cncc(-c2ccc(C(=O)NCc3ccnc(NS(=O)(=O)C4CC4)n3)cc2)n1 |
| ≤ 100 | > 60 | CCOc1cncc(-c2ccc(NC(=O)C(CC)c3cncc(NS(=O)(=O)C4CC4)n3)cc2)n1 (stereo unspecified) |
| ≤ 100 | > 60 | CCOc1cncc(-c2ccc(NC(=O)C3(c4ccnc(NS(=O)(=O)C5CC5)n4)CCC4(CC3)OCCO4)nc2)n1 |
|  | > 60 | CCOc1cncc(-c2ccc(NC(=O)C(F)(CC)c3cncc(NS(=O)(=O)C4CC4)n3)nc2)n1 (stereo in doubt; form 2) |
|  | > 60 | CCOc1cncc(-c2ccc(NC(=O)C3(c4ccnc(NS(=O)(=O)C5CC5)n4)CCC(O)CC3)nc2)n1 (stereo in doubt) |
|  | > 60 | CCOc1cncc(-c2ccc(NC(=O)C3(c4ccnc(NS(=O)(=O)N(C)C)n4)CCOCC3)nc2)n1 |
| ≤ 100 | 2 | CCOc1cncc(-c2ccc(NC(=O)C(C)(C)c3ccnc(NS(=O)(=O)C4CC4)n3)cc2)n1 |
|  | 2 | CCC(C(=O)Nc1ccc(-c2cncc(Cl)c2)cc1)c1ccnc(NS(=O)(=O)C2CC2)n1 (stereo unspecified) |
|  | 2 | CCOc1cncc(-c2ccc(NC(=O)C(F)(CC)c3cncc(NS(=O)(=O)C4CC4)n3)nc2)n1 (stereo in doubt; form 3) |
| ≤ 100 | 30 | CCOc1cncc(-c2ccc(NC(=O)C(CCOC)c3ccnc(NS(=O)(=O)C4CC4)n3)cc2)n1 (stereo unspecified) |
| ≤ 100 | 30 | CCOc1cncc(-c2ccc(NC(=O)Cc3ccnc(NS(=O)(=O)C4CC4)n3)cc2)n1 |
|  | 30 | CCOc1cncc(-c2ccc(NC(=O)C(C)(C)c3ccnc(NS(=O)(=O)CC)n3)cc2)n1 |
| ≤ 100 | > 60 | CCC(C(=O)Nc1ccc(-c2cncc(OC(C)C)n2)cn1)c1ccnc(NS(=O)(=O)C2CC2)n1 (stereo unspecified) |
| ≤ 100 | 2 | CCOc1cncc(-c2ccc(NC(=O)C(CC)c3ccnc(NS(=O)(=O)C4CC4)n3)c(C)c2)n1 (stereo unspecified) |
| ≤ 100 | > 60 | CCOc1cncc(-c2ccc(NC(=O)C3(c4cncc(NS(=O)(=O)C5CC5)n4)CCOCC3)nc2)n1 |
| ≤ 100 | 30 | CC(C)Oc1cncc(-c2ccc(NC(=O)Cc3ccnc(NS(=O)(=O)C4CC4)n3)c(F)c2)n1 |
| ≤ 100 | > 60 | CCOc1cncc(-c2ccc(NC(=O)C3(c4ccnc(NS(=O)(=O)C5CC5)n4)CCCC3)nc2)n1 |
| ≤ 100 | 2 | CC(C)Oc1cncc(-c2ccc(NC(=O)C(C)(C)c3ccnc(NS(=O)(=O)C4CC4)n3)c(F)c2)n1 |
| ≤ 100 | > 60 | CCOc1cncc(-c2ccc(NC(=O)C3(c4ccnc(NS(=O)(=O)C5CC5)n4)CCOCC3)c(F)c2)n1 |
|  | 2 | CC(C)(C(=O)Nc1ccc(-c2cncc(C3CC3)n2)cc1F)c1ccnc(NS(=O)(=O)C2CC2)n1 |
|  | > 60 | CCOc1cncc(-c2ccc(NC(=O)C3(c4ccnc(NS(=O)(=O)C5CC5)n4)CCC(N(C)C)CC3)nc2)n1 (stereo in doubt; form 1) |
|  | 30 | CC(C)c1cncc(-c2ccc(NC(=O)C(C)(C)c3ccnc(NS(=O)(=O)C4CC4)n3)cc2)n1 |
| ≤ 100 | 2 | CCOc1cncc(-c2ccc(NC(=O)C(CC)c3ccnc(NS(=O)(=O)C4CC4)n3)c(F)c2)n1 (stereo unspecified) |
